Experimental data reported in PubChem BioAssay AID1963982 (Molecular Pharmacology Branch, DTP, NCI, 2024).

Tested on: 313798-341-R-J2-PDC spheroids, viability
Assay: Anticancer human tumor 313798-341-R-J2-PDC patient-derived cervical squamous cell carcinoma cell line growth inhibition [PI3K]
Details: spheroids with HUVEC and MSC; for IC50: curve of first compound; for viability, T/C: stronger effect = lower value
Description: Combinatorial screen of targeted agents with the PI3K inhibitors inavolisib, alpelisib, duvelisib, and copanlisib in multi-cell type tumor spheroids
A high-throughput screen of multi-cell type tumor spheroids was designed to identify active combinations of targeted small molecules and PI3K pathway inhibitors. Complex spheroids include a stromal component modeled by human endothelial cells (HUVEC) and fibroblasts modeled by human mesenchymal stem cells (MSCs). The concentration ranges selected for each drug and investigational agent were based upon clinically achievable concentrations if the clinical Cmax of the agent was known.
Compounds. The drugs and investigational agents: inavolisib (NSC800729), alpelisib (NSC765974), duvelisib (NSC772469), copanlisib (NSC816437), ipatasertib (NSC767898), afuresertib (NSC778305), talazoparib (NSC767125), sapanisertib (NSC764658), selumetinib (NSC741078), tovorafenib (DAY101, NSC766906), vemurafenib (NSC761431), ravoxertinib (NSC781343), sotorasib (NSC818433), MRTX1133 (NSC 836407), abemaciclib (NSC 768073), palbociclib (NSC758247), venetoclax (NSC 766270), SY5609 (NSC837396), enzalutamide (NSC755605), and darolutamide (NSC825331), were obtained from the National Cancer Institute (NCI) Developmental Therapeutics Program Chemical Repository. The FDA-approved anticancer drug set is available from the NCI Developmental Therapeutics Program. […] The stock solutions were prepared in dimethyl sulfoxide (DMSO, Sigma-Aldrich, St. Louis, MO, cat. D2650) at 800-fold the tested concentration and stored at -70 degrees C prior to their use. All drugs and investigational agents were tested over a range starting from a high concentration at or near the clinical Cmax and decreasing in half-log increments. If the clinical Cmax for an agent had not been determined, the highest concentration tested was 10 microM.
Cell Culture. All cells were maintained in an incubator at 37 degrees C and 5% CO2 with 95% humidity. The PDC lines were cultured according to standard operating procedures established by the NCI PDMR (https://pdmr.cancer.gov/sops/default.htm). All PDCs were thawed and cultured in Matrigel-coated flasks prepared with a working solution of 1X Ham's F-12 nutrient mix, without supplementation (Invitrogen, Waltham, MA, cat. 11765054), 100 U/mL penicillin-streptomycin (Invitrogen, cat. 15140122), and 2.5% Matrigel (Corning Inc., Corning, NY, cat. 354248) for the first three passages. The 354836-022-R-J1-PDC, 475296-252-R-J1-PDC, and 997726-040-R-J2-PDC lines were cultured in 6A media, which includes advanced DMEM/F-12 (Thermo Fisher Scientific, cat. 12634028), 10 mM HEPES (Thermo Fisher Scientific, cat. 15630080), 1X GlutaMAX supplement (Thermo Fisher Scientific, cat. 35050061), 0.1 mg/mL primocin (InvivoGen, San Diego, CA, cat. ant-pm-2), 10% defined fetal bovine serum, heat inactivated (HyClone Laboratories Inc., Logan, UT, cat. SH30070.03HI), 50% L-WRN conditioned media (ATCC, cat. CRL-3276), 1.25 mM N-Acetyl-L-cysteine (Sigma-Aldrich, cat. A9165), 10 mM nicotinamide (Sigma-Aldrich, cat. N0636), 1X B-27 supplement (Thermo Fisher Scientific, cat. 17504044), 1X N-2 supplement (Thermo Fisher Scientific, cat. 17502048), and 10 microM Y-27632 dihydrochloride (Tocris Bioscience, Bristol, United Kingdom, cat. 1254). The 624824-186-R-J2-PDC line was cultured in 6C/Colon 1B media, which includes all 6A media components plus 50 ng/mL human EGF recombinant protein (Thermo Fisher Scientific, cat. PHG0311). […]

[1] = second compound 0.00316 µM, first compound 0.0316 µM
[2] = second compound 0.00316 µM, first compound 0.1 µM
[3] = second compound 0.01 µM, first compound 0.0316 µM
[4] = second compound 0.01 µM, first compound 0.1 µM
[5] = second compound 0.0316 µM, first compound 0.0316 µM
[6] = second compound 0.0316 µM, first compound 0.1 µM
[7] = second compound 0.1 µM, first compound 0.0316 µM
[8] = second compound 0.1 µM, first compound 0.1 µM
[9] = second compound 0.316 µM, first compound 0.0316 µM
[10] = second compound 0.316 µM, first compound 0.1 µM
[11] = second compound 1 µM, first compound 0.0316 µM
[12] = second compound 1 µM, first compound 0.1 µM
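Further: spheroids exposed to compounds for seven days.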
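Wherever viability, T/C is given: 100% = DMSO vehicle control viability.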

`CC(C)n1nc(-c2ccc3oc(N)nc3c2)c2c(N)ncnc21` + CC(Nc1ccc2c(c1)OCCn1cc(N3C(=O)OCC3C(F)F)nc1-2)C(N)=O was tested, and the IC50 (second compound 0.00316 µM) was 0.0702 µM, the IC50 (second compound 0.01 µM) was 0.0663 µM and the IC50 (second compound 0.0316 µM) was 0.0488 µM. The IC50 (second compound 0.1 µM) was 0.0282 µM, the IC50 (second compound 0.316 µM) was 0.0142 µM and the IC50 (second compound 1 µM) was 0.00185 µM. It also gave a viability, T/C (second compound 0.00316 µM, first compound 0.000316 µM) of 90.9%, a viability, T/C (second compound 0.00316 µM, first compound 0.001 µM) of 99% and a viability, T/C (second compound 0.00316 µM, first compound 0.00316 µM) of 119%. It also gave a viability, T/C (second compound 0.00316 µM, first compound 0.01 µM) of 92.8%, a viability, T/C [1] of 78% and a viability, T/C [2] of 37.8%. The viability, T/C (second compound 0.01 µM, first compound 0.000316 µM) was 83.8%, the viability, T/C (second compound 0.01 µM, first compound 0.001 µM) was 90.4% and the viability, T/C (second compound 0.01 µM, first compound 0.00316 µM) was 100%. For the same compound, the viability, T/C (second compound 0.01 µM, first compound 0.01 µM) was 103%, the viability, T/C [3] was 73.2% and the viability, T/C [4] was 37.2%. The viability, T/C (second compound 0.0316 µM, first compound 0.000316 µM) was 94.6%, the viability, T/C (second compound 0.0316 µM, first compound 0.001 µM) was 92.3% and the viability, T/C (second compound 0.0316 µM, first compound 0.00316 µM) was 92.1%. For the same compound, the viability, T/C (second compound 0.0316 µM, first compound 0.01 µM) was 92.6%, the viability, T/C [5] was 60.6% and the viability, T/C [6] was 32.4%. For the same compound, the viability, T/C (second compound 0.1 µM, first compound 0.000316 µM) was 95.6%, the viability, T/C (second compound 0.1 µM, first compound 0.001 µM) was 97.4% and the viability, T/C (second compound 0.1 µM, first compound 0.00316 µM) was 92.2%. The viability, T/C (second compound 0.1 µM, first compound 0.01 µM) was 69.3%, the viability, T/C [7] was 49.6% and the viability, T/C [8] was 33.2%. For the same compound, the viability, T/C (second compound 0.316 µM, first compound 0.000316 µM) was 83.4%, the viability, T/C (second compound 0.316 µM, first compound 0.001 µM) was 70.9% and the viability, T/C (second compound 0.316 µM, first compound 0.00316 µM) was 64.8%. The viability, T/C (second compound 0.316 µM, first compound 0.01 µM) was 54.7%, the viability, T/C [9] was 43.5% and the viability, T/C [10] was 25.1%. The viability, T/C (second compound 1 µM, first compound 0.000316 µM) was 55.3%, the viability, T/C (second compound 1 µM, first compound 0.001 µM) was 53.1% and the viability, T/C (second compound 1 µM, first compound 0.00316 µM) was 45%. For the same compound, the viability, T/C (second compound 1 µM, first compound 0.01 µM) was 42.1%, the viability, T/C [11] was 32.9% and the viability, T/C [12] was 14.3%.
`CCCS(=O)(=O)Nc1ccc(F)c(C(=O)c2c[nH]c3ncc(-c4ccc(Cl)cc4)cc23)c1F` + CC(Nc1ccc2c(c1)OCCn1cc(N3C(=O)OCC3C(F)F)nc1-2)C(N)=O was tested, and the IC50 (second compound 0.00316 µM) was 6 µM, the IC50 (second compound 0.01 µM) was 6 µM and the IC50 (second compound 0.0316 µM) was 5.77 µM. The IC50 (second compound 0.1 µM) was 4.97 µM, the IC50 (second compound 0.316 µM) was 3.56 µM and the IC50 (second compound 1 µM) was 1.67 µM. It also gave a viability, T/C [1] of 90.6%, a viability, T/C [2] of 98.7% and a viability, T/C (second compound 0.00316 µM, first compound 0.316 µM) of 88.4%. The viability, T/C (second compound 0.00316 µM, first compound 1 µM) was 114%, the viability, T/C (second compound 0.00316 µM, first compound 3.16 µM) was 97.9% and the viability, T/C (second compound 0.00316 µM, first compound 10 µM) was 11.9%. The viability, T/C [3] was 99.1%, the viability, T/C [4] was 95.8% and the viability, T/C (second compound 0.01 µM, first compound 0.316 µM) was 98.7%. For the same compound, the viability, T/C (second compound 0.01 µM, first compound 1 µM) was 106%, the viability, T/C (second compound 0.01 µM, first compound 3.16 µM) was 104% and the viability, T/C (second compound 0.01 µM, first compound 10 µM) was 9.37%. For the same compound, the viability, T/C [5] was 107%, the viability, T/C [6] was 97.8% and the viability, T/C (second compound 0.0316 µM, first compound 0.316 µM) was 97.7%. The viability, T/C (second compound 0.0316 µM, first compound 1 µM) was 97.7%, the viability, T/C (second compound 0.0316 µM, first compound 3.16 µM) was 92.7% and the viability, T/C (second compound 0.0316 µM, first compound 10 µM) was 10.9%. For the same compound, the viability, T/C [7] was 104%, the viability, T/C [8] was 92.6% and the viability, T/C (second compound 0.1 µM, first compound 0.316 µM) was 84.9%. It also gave a viability, T/C (second compound 0.1 µM, first compound 1 µM) of 92.6%, a viability, T/C (second compound 0.1 µM, first compound 3.16 µM) of 76% and a viability, T/C (second compound 0.1 µM, first compound 10 µM) of 9.75%. It also gave a viability, T/C [9] of 74.6%, a viability, T/C [10] of 82.1% and a viability, T/C (second compound 0.316 µM, first compound 0.316 µM) of 79.7%. It also gave a viability, T/C (second compound 0.316 µM, first compound 1 µM) of 73.6%, a viability, T/C (second compound 0.316 µM, first compound 3.16 µM) of 54.9% and a viability, T/C (second compound 0.316 µM, first compound 10 µM) of 8.5%. For the same compound, the viability, T/C [11] was 50.5%, the viability, T/C [12] was 59.1% and the viability, T/C (second compound 1 µM, first compound 0.316 µM) was 59.5%. For the same compound, the viability, T/C (second compound 1 µM, first compound 1 µM) was 58%, the viability, T/C (second compound 1 µM, first compound 3.16 µM) was 41.6% and the viability, T/C (second compound 1 µM, first compound 10 µM) was 8.44%.
